Where no end group is shown, it is not given here.
Assays:
[1] = tested on: MAPK signaling in HEK293 cells overexpressing wild-type BRAF or BRAF^G469A; assay: Cell-based synergy assay of TAT-braftide with ATP-competitive inhibitors in HEK293 cells overexpressing BRAF^WT or BRAF^G469A
Protocol: IC50 values were obtained from a dose-response curve (4-parameter logistic equation) in Origin, from three independent experiments. […] Western blots are representative of at least three independent experiments.
Cell lysates were subjected to immunoblotting for the indicated proteins.
HEK293 cells were plated at one million cells per 2 mL :DMEM supplemented with 10% FBS and 1% L-glutarnine. These cells were incubated at 37° C. with 5% CO2 for 24 hours or until the cells reach a confluency of 40-60%. DNA (1-3 μg) was mixed with PEI-MAX in a 1:3 ratio in Opti-MEM at RT for ˜25 minutes and added onto the cells with fresh media. After 48 hrs, the cells were washed with cold PBS, harvested, lysed with 4% SDS and homogenized. […] The cells were then washed twice with PBS, lysed as above and quantified with the BCA protein assay. Equal amounts of cell lysates were loaded for immunoblotting and then probed for relevant proteins. […] Cells were washed twice with PBS and processed as above. Protein concentrations were determined with BCA assays for immunoblotting.
The efficacy of current ATP-competitive BRAF inhibitors is limited to BRAF^V600E that signals as a monomer.

[2] = target: T1, BRAF^WT in HEK293 cells (Homo sapiens, UniProt P15056); assay: BRAF degradation: bortezomib rescue and cycloheximide half-life in HEK293 cells; format: cell-based; settings: pre-treated with 0.4 μM Bortezomib 5 hr, then 75 and 100 μM peptide 4 hr
T1 construct: expressed in transfected cells; host or cells: HEK293
T1 sequence (P15056 whole entry): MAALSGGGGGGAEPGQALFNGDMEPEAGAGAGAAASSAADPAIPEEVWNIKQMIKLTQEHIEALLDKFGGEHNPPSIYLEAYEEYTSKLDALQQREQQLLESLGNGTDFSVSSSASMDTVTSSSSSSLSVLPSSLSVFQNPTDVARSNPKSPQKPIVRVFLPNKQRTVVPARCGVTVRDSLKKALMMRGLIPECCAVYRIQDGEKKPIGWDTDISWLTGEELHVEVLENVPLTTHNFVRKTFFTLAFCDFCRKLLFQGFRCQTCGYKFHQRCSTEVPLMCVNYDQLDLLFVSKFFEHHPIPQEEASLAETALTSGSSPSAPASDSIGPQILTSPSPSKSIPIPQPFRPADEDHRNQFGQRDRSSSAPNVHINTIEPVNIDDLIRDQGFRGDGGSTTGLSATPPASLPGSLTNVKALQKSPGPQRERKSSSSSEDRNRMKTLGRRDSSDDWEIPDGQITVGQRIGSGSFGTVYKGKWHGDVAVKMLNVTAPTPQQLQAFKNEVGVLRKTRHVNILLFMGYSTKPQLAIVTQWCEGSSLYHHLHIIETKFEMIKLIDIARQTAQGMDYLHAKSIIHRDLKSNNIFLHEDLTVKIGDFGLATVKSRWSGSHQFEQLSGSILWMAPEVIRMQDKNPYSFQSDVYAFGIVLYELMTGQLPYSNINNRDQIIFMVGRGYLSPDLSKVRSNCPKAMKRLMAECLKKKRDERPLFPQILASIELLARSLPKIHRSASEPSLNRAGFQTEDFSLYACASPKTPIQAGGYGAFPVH
Protocol: FIG. 3B illustrates quantification of BRAF protein levels after rescue with Bortezomib. […] FIG. 3D illustrates quantification of the Western Blot to determine the half-life (t,1/2) of BRAF. Western blots are representative of at least three independent experiments.
HEK293 cells transiently transfected with wild-type BRAF were treated with cycloheximide.

[3] = tested on: MAPK pathway in the HCT116 cell line; assay: MAPK pathway inhibition in HCT116 cells (immunoblotting); format: cell-based; settings: 0-75 μM, 4 hr; read-out: IC50 of MAPK pathway inhibition (phospho-MEK, phospho-ERK, degradation of endogenous BRAF and MEK)
Protocol: (§1) Western blots are representative of at least three independent experiments. […] Cell viability was determined through the WST assay according to manufacturer's instructions. IC50 values were obtained from a dose-response curve (4-parameter logistic equation) in Origin, from three independent experiments.

[4] = tested on: BRAF^WT/G469A kinase activity in HEK293 cells; assay: Immunoblotting of HEK293 cells transiently transfected with BRAF^WT/G469A (pMEK, BRAF, MEK levels); format: cell-based; settings: 0-100 μM, 4 hrs
Protocol: FIGS. 2A-2C illustrate TAT-tagged Braftide inhibits BRAF^WT/G469A kinase activity in HEK293 cells. HEK293 cells transiently transfected with BRAF^WT/G469A were treated with TAT-braftide or TAT peptide at the indicated concentrations (0, 10, 25, 50, 75, and 100 μM) for 4 hrs. Cell lysates were subjected to immunoblotting with the indicated antibodies: anti-BRAF, anti-pMEK, and anti-Actin. FIG. 2A illustrates effect of TAT-braftide on BRAF^WT/G469A kinase activity in HEK293 cells. FIG. 2B illustrates effect of TAT control peptide on BRAF^WT/G469A kinase activity in HEK293 cells. Western blots are representative of at least three independent experiments. The band intensities from the Western Blots were quantified in ImageJ. FIG. 2C illustrates confocal microscopy images of HEK293 cells treated with 25 μM braftide-Cy3 for 2 hr and stained with FLAG antibody for BRAF.
HEK293 cells were plated at one million cells per 2 mL :DMEM supplemented with 10% FBS and 1% L-glutarnine. These cells were incubated at 37° C. with 5% CO2 for 24 hours or until the cells reach a confluency of 40-60%. DNA (1-3 μg) was mixed with PEI-MAX in a 1:3 ratio in Opti-MEM at RT for ˜25 minutes and added onto the cells with fresh media. After 48 hrs, the cells were washed with cold PBS, harvested, lysed with 4% SDS and homogenized. For peptide assays, 48 hrs post-transfection, cells were treated with TAT-Braftide/TAT control in reduced serum media at the indicated concentrations for 4 hrs. The cells were then washed twice with PBS, lysed as above and quantified with the BCA protein assay. Equal amounts of cell lysates were loaded for immunoblotting and then probed for relevant proteins. […] Protein concentrations were determined with BCA assays for immunoblotting.
Braftide was conjugated with the TAT sequence ([…]; SEQ ID NO:2), a cell-penetrating peptide widely used in peptide drugs. […] The activity of BRAF was quantified by probing for phospho-MEK1/2. […] A Cy3-tagged version of braftide was synthesized and evaluated for its ability of crossing the plasma membrane using immunofluorescence experiments. […]

[5] = tested on: HCT116 cells; assay: WST cell viability assay, HCT116; format: cell-based; settings: 48 hr
Protocol: as §1
(§2) Cells were seeded onto poly-lysine coated, clear-bottomed, 96-well plates at 15000 cells per well. […] Upon 48 hr treatment, cell viability was determined through the WST cell viability assay. According to manufacturers' instructions, 10 μL of the WST reagent was added to each well and incubated at 37° C. for 4 hrs. Absorbance readings for the plate were then taken at 450 nm in a Biotek plate reader.

[6] = tested on: HCT-15 cells; assay: WST cell viability assay, HCT-15; format: cell-based; settings: 48 hr
Protocol: as §1, §2

[7] = target: T2, p61 BRAF^V600E (Homo sapiens, UniProt P15056, DEL169-380/V600E); assay: Immunoblotting of HEK293 cells transfected with p61-BRAF^V600E; format: cell-based; settings: increasing concentrations, 4 hr
T2 construct: expressed in transfected cells; host or cells: HEK293
T2 sequence (P15056 with tags, fused parts or gaps DEL169-380/V600E): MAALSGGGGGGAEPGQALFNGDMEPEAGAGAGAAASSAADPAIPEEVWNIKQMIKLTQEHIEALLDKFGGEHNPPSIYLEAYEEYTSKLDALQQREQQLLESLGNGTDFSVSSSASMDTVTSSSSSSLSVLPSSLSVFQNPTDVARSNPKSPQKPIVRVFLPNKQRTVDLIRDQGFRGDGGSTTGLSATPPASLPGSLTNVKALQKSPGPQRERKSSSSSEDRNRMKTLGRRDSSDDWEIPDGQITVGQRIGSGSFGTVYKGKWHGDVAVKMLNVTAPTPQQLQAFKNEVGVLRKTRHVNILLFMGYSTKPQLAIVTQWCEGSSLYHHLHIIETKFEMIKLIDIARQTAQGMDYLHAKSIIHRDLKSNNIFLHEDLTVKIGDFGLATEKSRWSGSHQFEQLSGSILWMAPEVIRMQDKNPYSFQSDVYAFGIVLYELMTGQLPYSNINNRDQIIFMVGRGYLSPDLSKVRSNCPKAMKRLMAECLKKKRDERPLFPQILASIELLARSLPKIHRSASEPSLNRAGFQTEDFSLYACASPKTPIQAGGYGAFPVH

[8] = dabrafenib alone, wild-type BRAF, 1 hr

For `CCCS(=O)(=O)Nc1ccc(F)c(C(=O)c2c[nH]c3ncc(-c4ccc(Cl)cc4)cc23)c1F` [vemurafenib, N-(3-{[5-(4-Chlorophenyl)-1H-pyrrolo[2,3-b]pyridin-3-yl]carbonyl}-2,4-difluorophenyl)propane-1-sulfonamide], the synergy with braftide ([1]; braftide 75 μM 2 hr, then vemurafenib 1 hr) was “same synergy effect between vemurafenib and braftide was validated”.
For “Braftide conjugated with the TAT sequence (GRKKRRQRRRPQ; SEQ ID NO:2), a cell-penetrating peptide (GRKKRRQRRRPQTRHVNILLFM; also: possible unspecified modification flagged (lipid/PEG, unknown token)) [TAT-braftide]”, the “kinase activity of BRAF after proteasome inhibition” value [2] was “still successfully inhibited the kinase activity of BRAF”, the IC50 [3] was under 10 µM and the “activity of BRAF (phospho-MEK1/2)” value [4] was “significantly reduced the activity of BRAF in a dose-dependent manner”. For the same compound, the “protein levels of overexpressed BRAF and endogenous MEK1” value [4] was “markedly decreased in a dose-dependent manner”, the EC50 ([5]; WST assay, read-out: EC50 of inhibition of cell growth, HCT116) was 5 µM and the EC50 ([6]; WST assay, read-out: EC50 of inhibition of cell growth, HCT-15) was 9 µM. The “pMEK and pERK levels” value [7] was “A decrease in both pMEK and pERK levels was observed” and the “protein level of p61” value [7] was “not affected as dramatically as wild-type BRAF”.
For `CC(C)(C)c1nc(-c2cccc(NS(=O)(=O)c3c(F)cccc3F)c2F)c(-c2ccnc(N)n2)s1` [dabrafenib, N-{3-[5-(2-aminopyrimidin-4-yl)-2-tert-butyl-1,3-thiazol-4-yl]-2-fluorophenyl}-2,6-difluorobenzenesulfonamide], the “concentration at which dabrafenib performed as an inhibitor” value [1, 8] was “above 10 μM” and the “effect on MAPK signaling at lower concentrations” value [1, 8] was “activated the MAPK signaling at lower concentrations”.
For “GRKKRRQRRRPQ [TAT peptide, cell-penetrating peptide used as the negative control, reference compound]”, the “activity of BRAF (phospho-MEK1/2)” value [4] was “no inhibition effect was observed”, the “cell death, HCT116” value ([5]; at concentrations up to 100 μM) was “no cell death was observed” and the “cell death, HCT-15” value ([6]; at concentrations up to 100 μM) was “no cell death was observed”.

From patent publication US11338012B2, “BRAF-based polypeptides for treatment of cancer” (UNIVERSITY OF THE SCIENCES, priority 2019, dated 2022)
